Test results published in ChEMBL document CHEMBL1126357, “Synthesis of sodium salt of ortho-(difluoromethyl)phenyl--ketoside of N-acetylneuraminic acid : a mechanism-based inhibitor of Clostridium perfringens neuraminidase” (Bioorg Med Chem Lett, 1992).

Experiment: Ki apparent against Clostridium perfringens neuraminidase was determined
Details: read-out: Ki app

CC(=O)NC1C(O)CC(Oc2ccccc2C(F)F)(C(=O)O)OC1[C@H](O)[C@H](O)CO (stereo partly specified)
Ki: 150 µM
